Values after ≈ are worked out from the molar mass of the structure shown.
How the values were obtained:
[1] = DPPH free radical scavenging (antioxidant activity, electron donating ability); conditions: 0.1 mM DPPH in methanol, 30 minutes at room temperature in the absence of light, absorbance at 517 nm
Experimental: Butylated hydroxyl anisole (BHA) was used as a control.
The mixture was allowed to react at room temperature for 30 minutes in the absence of light, and then the absorbance at 517 nm was measured using an UV-visible spectrophotometer (SCINCO, Korea). As blank, a reaction product between 0.5 ml of 0.1 mM DPPH and 1.5 ml of methanol was used. Electron donating ability (DEA) was calculated using the following equation: Electron donating ability (DEA) %={1−(S/B)}×100 wherein S is the absorbance at 517 nm of the reaction product between DPPH and the sample, and B is the absorbance at 517 nm of the reaction product between DPPH and methanol.

[2] = Stability of ramalin in water by HPLC, alone or with vitamin C; format: physicochemical; conditions: for stability (preserved amount by HPLC area) over maintenance time: FIG. 5
Experimental: At varying points of time, 10 μl of a sample was analyzed by semi-preparative reverse phase HPLC using an Agilent Eclipse XDB-C18 column (4.6×150 mm). The solvent system used consisted of 0.1% formic acid-containing water (A line) and 0.1% formic acid-containing methanol (B line). The analysis was carried out for a total of 30 minutes under the following conditions: from 0% to 5% for 15 min, from 5% to 90% for 5 min, from 90% to 0% for 5 min, and finally, from 0% to 5 min. The flow rate was 0.7 ml/min.

| Structure (SMILES) | IC50 values [1] [mg/L] | stability (preserved amount by HPLC area) over maintenance time ([2]; ramalin alone, stored in water at 25° C. and 38° C.) | stability (preserved amount by HPLC area) over maintenance time ([2]; ramalin mixed with vitamin C (L-ascorbic acid) 1:1 (each 1000 ppm), stored in water) | stability at 38° C. ([2]; ramalin stored alone in water) | stability at 38° C. ([2]; ramalin stored together with vitamin C (1:1, each 1000 ppm) in water) | time within which more than half of ramalin disappears ([2]; room temperature, ramalin alone) [days] |
| --- | --- | --- | --- | --- | --- | --- |
| COc1ccc(O)c(C(C)(C)C)c1 [Butylated hydroxyl anisole (BHA), Butylated hydroxyl anisole] | 1.43 (≈ 7.93 µM) | – | – | – | – | – |
| NC(CCC(=O)NNc1ccccc1O)C(=O)O (stereo not drawn) [Synthesized ramalin, ramalin] | – | decomposed rapidly | stability of the ramalin was maintained | completely disappear | somewhat stable | ≤ 4 |

Source: US8865934B2 (priority 2010, dated 2014)
